Assay results reported in ChEMBL document CHEMBL5291721, “A preclinical secondary pharmacology resource illuminates target-adverse drug reaction associations of marketed drugs” (Nat Commun, 2023).

Tests used:
[1] = molecular target: T1, Corticotropin-releasing factor receptor 1 (Homo sapiens, UniProt P34998)
T1 sequence (P34998 whole entry): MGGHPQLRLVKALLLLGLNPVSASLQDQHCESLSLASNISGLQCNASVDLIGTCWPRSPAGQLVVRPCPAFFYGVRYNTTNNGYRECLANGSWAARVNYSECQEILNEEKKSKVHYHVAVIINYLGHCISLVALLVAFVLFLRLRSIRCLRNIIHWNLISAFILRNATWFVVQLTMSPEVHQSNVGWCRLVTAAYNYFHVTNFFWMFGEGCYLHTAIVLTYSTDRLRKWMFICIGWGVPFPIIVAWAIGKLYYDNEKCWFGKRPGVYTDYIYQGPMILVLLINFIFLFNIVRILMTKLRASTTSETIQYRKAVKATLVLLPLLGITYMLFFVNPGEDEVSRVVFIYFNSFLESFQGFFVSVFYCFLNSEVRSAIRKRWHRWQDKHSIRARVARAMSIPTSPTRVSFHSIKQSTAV

Cannabinoid receptor 1 = Cannabinoid receptor 1 (Homo sapiens, UniProt P21554)
Chain of Cannabinoid receptor 1 (P21554 whole entry): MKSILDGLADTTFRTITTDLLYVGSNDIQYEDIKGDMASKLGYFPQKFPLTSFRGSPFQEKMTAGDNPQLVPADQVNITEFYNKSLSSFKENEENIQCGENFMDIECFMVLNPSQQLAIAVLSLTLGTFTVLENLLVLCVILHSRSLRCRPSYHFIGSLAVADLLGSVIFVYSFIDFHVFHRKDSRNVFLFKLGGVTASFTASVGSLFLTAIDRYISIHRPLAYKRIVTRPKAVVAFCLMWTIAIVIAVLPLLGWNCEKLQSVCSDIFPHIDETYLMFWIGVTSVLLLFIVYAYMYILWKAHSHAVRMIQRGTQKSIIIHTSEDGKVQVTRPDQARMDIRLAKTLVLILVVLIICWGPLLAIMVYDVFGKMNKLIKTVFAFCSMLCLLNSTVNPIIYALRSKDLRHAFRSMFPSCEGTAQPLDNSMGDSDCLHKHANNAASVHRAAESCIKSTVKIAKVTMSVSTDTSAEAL

[2] = molecular target: T2, Gastric inhibitory polypeptide receptor (Homo sapiens, UniProt P48546)
T2 sequence (P48546 whole entry): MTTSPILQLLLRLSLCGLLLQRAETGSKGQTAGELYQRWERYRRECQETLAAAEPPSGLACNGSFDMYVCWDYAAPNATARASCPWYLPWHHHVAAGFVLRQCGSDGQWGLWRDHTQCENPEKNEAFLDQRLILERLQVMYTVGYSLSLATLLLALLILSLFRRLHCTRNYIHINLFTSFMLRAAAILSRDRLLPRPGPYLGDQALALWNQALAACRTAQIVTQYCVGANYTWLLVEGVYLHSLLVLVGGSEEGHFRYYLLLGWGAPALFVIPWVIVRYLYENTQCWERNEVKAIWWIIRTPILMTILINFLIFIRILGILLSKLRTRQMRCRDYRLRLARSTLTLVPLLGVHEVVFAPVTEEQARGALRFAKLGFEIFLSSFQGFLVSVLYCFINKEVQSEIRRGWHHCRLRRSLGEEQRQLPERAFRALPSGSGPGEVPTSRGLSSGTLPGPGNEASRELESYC

Glucagon receptor = Glucagon receptor (Homo sapiens, UniProt P47871)
Chain of Glucagon receptor (P47871 whole entry): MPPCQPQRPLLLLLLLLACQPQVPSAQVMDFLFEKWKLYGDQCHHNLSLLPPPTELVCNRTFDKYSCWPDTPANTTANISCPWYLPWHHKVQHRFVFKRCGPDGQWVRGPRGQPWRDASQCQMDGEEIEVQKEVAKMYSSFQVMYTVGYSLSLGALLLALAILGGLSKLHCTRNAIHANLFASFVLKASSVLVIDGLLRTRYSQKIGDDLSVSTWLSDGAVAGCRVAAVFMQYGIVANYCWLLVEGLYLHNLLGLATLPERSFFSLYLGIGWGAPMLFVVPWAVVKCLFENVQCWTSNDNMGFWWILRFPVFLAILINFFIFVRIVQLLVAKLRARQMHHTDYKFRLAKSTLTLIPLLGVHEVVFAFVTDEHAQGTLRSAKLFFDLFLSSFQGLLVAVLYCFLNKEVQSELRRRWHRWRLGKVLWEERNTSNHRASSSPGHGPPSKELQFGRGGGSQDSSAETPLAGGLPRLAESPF

Estrogen receptor = molecular target: T3, Estrogen receptor (Homo sapiens, UniProt P03372)
T3 sequence (P03372 whole entry): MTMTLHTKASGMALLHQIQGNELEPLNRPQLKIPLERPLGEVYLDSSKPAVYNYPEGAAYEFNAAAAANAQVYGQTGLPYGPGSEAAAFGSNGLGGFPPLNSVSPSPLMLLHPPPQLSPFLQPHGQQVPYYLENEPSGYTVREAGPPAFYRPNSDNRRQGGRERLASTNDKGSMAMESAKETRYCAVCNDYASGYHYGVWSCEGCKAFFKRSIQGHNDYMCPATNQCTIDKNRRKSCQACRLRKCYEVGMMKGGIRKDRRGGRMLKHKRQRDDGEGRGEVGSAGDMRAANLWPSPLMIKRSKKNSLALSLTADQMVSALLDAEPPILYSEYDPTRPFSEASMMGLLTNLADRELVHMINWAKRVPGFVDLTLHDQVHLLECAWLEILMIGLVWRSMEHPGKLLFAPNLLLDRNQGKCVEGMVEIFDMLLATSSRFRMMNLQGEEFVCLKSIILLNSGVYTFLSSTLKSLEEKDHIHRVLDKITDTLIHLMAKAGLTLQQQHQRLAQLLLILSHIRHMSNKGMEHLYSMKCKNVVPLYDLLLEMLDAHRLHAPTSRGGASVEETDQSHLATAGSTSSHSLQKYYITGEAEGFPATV

[3] = molecular target: T4, Endothelin receptor type B (Homo sapiens, UniProt P24530)
T4 sequence (P24530 whole entry): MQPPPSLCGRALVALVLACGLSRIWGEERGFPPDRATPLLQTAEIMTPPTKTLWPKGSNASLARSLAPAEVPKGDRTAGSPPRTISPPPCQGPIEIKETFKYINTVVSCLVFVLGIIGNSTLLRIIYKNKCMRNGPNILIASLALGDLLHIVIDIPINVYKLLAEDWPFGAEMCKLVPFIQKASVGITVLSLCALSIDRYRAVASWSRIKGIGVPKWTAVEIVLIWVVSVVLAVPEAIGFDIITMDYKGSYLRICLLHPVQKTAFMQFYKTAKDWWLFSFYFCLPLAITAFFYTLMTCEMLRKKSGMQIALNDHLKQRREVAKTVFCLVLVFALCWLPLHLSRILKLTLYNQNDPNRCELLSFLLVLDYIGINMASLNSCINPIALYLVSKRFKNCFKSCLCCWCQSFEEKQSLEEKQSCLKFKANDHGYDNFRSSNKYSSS

[4] = molecular target: Muscarinic acetylcholine receptor M3 (Homo sapiens, UniProt P20309)
Chain of Muscarinic acetylcholine receptor M3 (P20309 whole entry): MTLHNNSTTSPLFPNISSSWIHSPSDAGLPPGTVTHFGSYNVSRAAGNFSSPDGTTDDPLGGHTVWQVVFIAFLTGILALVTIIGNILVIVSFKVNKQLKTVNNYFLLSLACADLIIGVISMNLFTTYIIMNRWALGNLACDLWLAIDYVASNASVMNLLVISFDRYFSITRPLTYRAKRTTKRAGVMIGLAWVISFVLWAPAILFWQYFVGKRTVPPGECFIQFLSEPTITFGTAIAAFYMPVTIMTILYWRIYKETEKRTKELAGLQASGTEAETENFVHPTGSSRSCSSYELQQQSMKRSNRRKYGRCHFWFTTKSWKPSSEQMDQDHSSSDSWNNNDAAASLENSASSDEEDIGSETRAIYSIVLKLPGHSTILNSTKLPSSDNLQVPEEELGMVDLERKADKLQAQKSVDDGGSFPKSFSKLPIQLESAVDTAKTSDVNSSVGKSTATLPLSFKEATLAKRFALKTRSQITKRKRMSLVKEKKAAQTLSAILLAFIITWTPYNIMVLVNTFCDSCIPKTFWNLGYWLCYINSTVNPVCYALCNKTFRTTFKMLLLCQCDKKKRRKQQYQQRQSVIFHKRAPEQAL

[5] = molecular target: T5, Alpha-2B adrenergic receptor (Homo sapiens, UniProt P18089)
T5 sequence (P18089 whole entry): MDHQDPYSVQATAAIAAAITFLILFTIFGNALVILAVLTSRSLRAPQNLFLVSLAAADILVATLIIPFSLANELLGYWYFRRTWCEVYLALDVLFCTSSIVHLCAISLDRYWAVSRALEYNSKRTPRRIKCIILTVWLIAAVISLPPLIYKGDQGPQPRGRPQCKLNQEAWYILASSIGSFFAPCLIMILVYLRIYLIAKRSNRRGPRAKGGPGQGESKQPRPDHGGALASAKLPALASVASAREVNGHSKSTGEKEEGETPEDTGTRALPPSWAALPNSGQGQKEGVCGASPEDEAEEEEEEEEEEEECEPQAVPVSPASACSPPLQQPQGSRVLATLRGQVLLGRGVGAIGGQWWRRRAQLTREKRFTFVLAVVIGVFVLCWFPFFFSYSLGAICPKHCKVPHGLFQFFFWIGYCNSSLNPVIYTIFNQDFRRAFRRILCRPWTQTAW
Note: assay procedure not described here.

| SMILES | AC50 [1] | AC50 (Cannabinoid receptor 1) | AC50 [2] | AC50 (Glucagon receptor) | AC50 (Estrogen receptor) | AC50 [3] | AC50 [4] | AC50 [5] |
| --- | --- | --- | --- | --- | --- | --- | --- | --- |
| CCOc1nc2cccc(C(=O)O)c2n1Cc1ccc(-c2ccccc2-c2nnn[nH]2)cc1 | > 30 µM | > 10 µM | > 30 µM | > 30 µM | > 30 µM | > 30 µM | – | – |
| CCCc1nc2c(C)cc(-c3nc4ccccc4n3C)cc2n1Cc1ccc(-c2ccccc2C(=O)O)cc1 | > 30 µM | > 30 µM | > 30 µM | > 30 µM | > 30 µM | > 30 µM | > 30 µM | > 30 µM |
| CCOc1cc([C@@H](CS(C)(=O)=O)N2C(=O)c3cccc(NC(C)=O)c3C2=O)ccc1OC | – | – | – | – | – | – | > 30 µM | > 30 µM |
| CC(=O)Nc1ccc(CC(=O)O)cc1 [ACTARIT] | – | – | – | – | > 30 µM | – | > 30 µM | > 30 µM |
| CC(C(=O)O)c1ccc2oc(-c3ccc(Cl)cc3)nc2c1 (centres undefined) [BENOXAPROFEN] | – | – | – | – | > 30 µM | – | – | – |
| CC1(C)S[C@@H]2[C@H](NC(=O)C(C(=O)O)c3ccccc3)C(=O)N2[C@H]1C(=O)O (some centres undefined) [CARBENICILLIN] | – | – | – | – | – | – | > 30 µM | > 30 µM |
| Cc1nnc(SCC2=C(C(=O)O)N3C(=O)[C@@H](NC(=O)Cn4cnnn4)[C@H]3SC2)s1 [CEFAZOLIN] | – | – | – | – | > 30 µM | – | > 300 µM | > 300 µM |
| CC=CC1=C(C(=O)O)N2C(=O)[C@@H](NC(=O)[C@H](N)c3ccc(O)cc3)[C@H]2SC1 [CEFPROZIL] | – | > 30 µM | – | – | > 30 µM | – | > 30 µM | > 30 µM |
| CC(C)(O/N=C(\C(=O)N[C@@H]1C(=O)N2C(C(=O)[O-])=C(C[n+]3ccccc3)CS[C@H]12)c1csc(N)n1)C(=O)O [CEFTAZIDIME] | – | – | – | – | > 30 µM | – | > 300 µM | > 300 µM |
| CC(C)NC(=N)NC(=N)Nc1ccc(Cl)c(Cl)c1 [CHLORPROGUANIL] | – | – | – | – | – | – | > 30 µM | 10 µM |
| CCCNC(=O)NS(=O)(=O)c1ccc(Cl)cc1 [CHLORPROPAMIDE] | > 30 µM | > 10 µM | > 30 µM | > 30 µM | > 30 µM | > 30 µM | – | – |
| C[N+](C)(C)CCOP(=O)(O)OP(=O)([O-])OC[C@H]1O[C@@H](n2ccc(N)nc2=O)[C@H](O)[C@@H]1O [CITICOLINE] | – | – | – | – | – | – | > 30 µM | > 30 µM |
| Clc1ccc(Cn2c(CN3CCCC3)nc3ccccc32)cc1 [CLEMIZOLE] | – | – | – | – | – | – | > 30 µM | 13 µM |
| Cc1nc(Nc2ncc(C(=O)Nc3c(C)cccc3Cl)s2)cc(N2CCN(CCO)CC2)n1 [DASATINIB] | – | > 10 µM | – | > 10 µM | – | > 10 µM | > 30 µM | > 30 µM |
| O=C(O)Cc1ccccc1Nc1c(Cl)cccc1Cl [DICLOFENAC] | > 30 µM | > 10 µM | > 30 µM | > 30 µM | – | > 30 µM | – | – |
| O=C(O)Cc1ccccc1Oc1ccc(Cl)cc1Cl [FENCLOFENAC] | > 30 µM | > 10 µM | > 30 µM | > 30 µM | > 30 µM | > 30 µM | > 10 µM | > 10 µM |
| Cc1onc(-c2c(F)cccc2Cl)c1C(=O)N[C@@H]1C(=O)N2[C@@H]1SC(C)(C)[C@@H]2C(=O)O [FLOXACILLIN] | – | – | – | – | – | – | > 30 µM | > 30 µM |
